Results published in patent US20060281088A1, “Markers for lxr activation” (priority 2003, published 2006).

Legend:
THP1 macrophages [1] = assay: Gene expression measurement by Gene Chip Microarray in THP1 macrophages; type: cell-based, human; conditions: Gene Chip Microarray analysis, result in words
Experimental: Cells were incubated at 37° C. and 5.2% CO2. For experimental treatments, cells were seeded at a density of 1×10^6/ml in 6-well plates in medium containing 100 nM phorbol 12-myristate 13-acetate (PMA) for 72 hours to fully differentiate them into adherent macrophages. The medium was then replaced by culture medium containing PMA with vehicle (DMSO) or test compound for 6 or 24 hours prior to harvesting. Total RNA was isolated using the TriZol reagent (Life Technologies) or the RNeasy mini kit (Qiagen) according to the manufacturer's protocols. To remove contaminating DNA, the samples were treated with RNAse free DNAse (GibCo).
Synthesis of first and second strand cDNA were performed using the SuperScript Choice Gene Chip Kit (Life Technologies) and reagents from Gibco. The double stranded cDNA, containing an incorporated T7 RNA polymerase binding site, was purified by extraction with a mix of phenol:chloroform:isoamylalcohol (Life Technologies). The organic and aqueous phases were separated by Phase Lock Gel (Eppendorf) and double-stranded cDNA was recovered by precipitation according to the manufacturer's protocol and then resuspended in water.
The double-stranded cDNA was converted to biotin-labeled cRNA by in vitro transcription (IVT) using a T7 kit (Ambion) and biotin-containing ribonucleotides (Enzo-LOXO GmbH). […]

THP1 macrophages [2] = assay: Gene expression measurement by Taqman quantitative RT-PCR in THP1 macrophages; type: cell-based, human; conditions: result in words
Description: Three oligonucleotides are used: a forward primer, a reverse primer, and a probe. All of them are specific for the target and are able to bind to it. The TaqMan assay uses a probe technology that exploits 5′→3′-nuclease activity of an enzyme, the most commonly used being Taq polymerase. The assay efficiency is largely dependent on this 5′→3′ nuclease activity. In this regard one should be careful in choosing a suitable polymerase. […] The probe is an oligonucleotide with a reporter dye at the 5′ end and a quencher dye at the 3′ end. The fluorescent reporter dye is attached covalently to the 5′ end and can be FAM (6-carboxyfluorescein), TET (tetrachloro-6-carboxyfluorescein), JOE (2,7-dimethoxy-4,5-dichloro-6-carboxyfluorescein), HEX (hexacholoro-6-carboxyfluorescein), or VIC. The reporter is quenched by TAMRA (6-carboxytetramethylrhodamine), bound to the 3′ end by a linker arm. […] An advantage of using DABCYL in the TaqMan probes is its reduced autofluorescence compared with TAMRA When the probe is intact the quencher dye absorbs the fluorescence of the reporter dye due to the proximity between both. […] By the 5′-exonuclease activity of the Taq:polymerase the probe is hydrolyzed and the reporter dye is separated from the quencher, resulting in an increase in fluorescence emission. […]

Structure (SMILES): O=S(=O)(c1ccccc1)N(CC(F)(F)F)c1ccc(C(O)(C(F)(F)F)C(F)(F)F)cc1 [T0901317]
- Gene expression changes of the listed marker genes (ABCA1, ABCG1, APOC1, APOE, ASM3A, C3F, CDC42EP4, CXCR4 ... PRKCI) (THP1 macrophages [1]): strong induction
- Gene expression changes for ABCA1, ABCG1, APOC1, APOE, ASM3A, CDC42EP4, CXCR4, FASN, LDLR, NR1H3, VLDLR (THP1 macrophages [2]): robust and significant increase in expression
